Results reported in patent US12172974B2 (Biohaven Pharmaceutical Holding Company Ltd., priority 2012, dated 2024).

How the values were obtained:
Type in all cases: in vitro ADME
[1] = Metabolic stability in pooled mouse liver microsomes; conditions: mouse liver microsomes 0.5 mg/mL, 1 uM, 37° C., NADPH
Description: (§1) Metabolic Stability: In vitro metabolic stability was determined in pooled mouse or human liver microsomes (BD Gentest) at a protein concentration of 0.5 mg/mL in reaction buffer (100 mM KH2PO4, pH 7.4 and 12 mM MgCl2). Each drug candidate was added to a final concentration of 1 uM. This mixture was pre-warmed to 37° C. for 10 minutes prior to starting the reaction with the addition of β-Nicotinamide adenine dinucleotide 2′-phosphate reduced (NADPH) to a final concentration of 1 mM. A parallel incubation lacking NADPH served as the control. After incubation for 30 min at 37° C., the reactions were quenched by the addition of acetonitrile containing 0.1% formic acid and internal standard, vortex mixed for 2 minutes and centrifuged at 4000 rpm for 10 minutes to pellet the precipitated protein. The resulting supernatant containing the drug candidate and its potential metabolites was diluted 5-fold with water containing 0.1% formic acid and submitted to LC-MS/MS analysis. […]
(§2) LC-MS/MS Analysis: An aliquot from each incubation was analyzed by LC-MS/MS with SRM detection in the positive ionization mode using an ABSciex API 5500 QTrap Mass Spectrometer interfaced via the ABSciex Turbo V IonSpray source (ESI) to an Eksigent ExpressHT LC system. […] A fast gradient, from 15 to 85% organic in 2.5 minutes, with run time of 5.0 minutes, and flow rate of 50 ul/min was utilized. Peak areas were integrated using MultiQuant v2.0 software from ABSciex.

[2] = Plasma stability in fresh mouse plasma; conditions: 1 uM, 37° C.
Description: (§3) Plasma Stability: Assessment of plasma stability was carried out by individual incubations of drug candidates in fresh mouse or human control plasma at a concentration of 1 uM for 1 hour at 37° C. After which, the samples were de-proteinized by addition of 2 volumes of acetonitrile containing 0.1% formic acid and internal standard, vortex mixed for 2 minutes and centrifuged at 4000 rpm for 10 minutes to pellet precipitated protein. The resulting supernatant containing the drug candidates was diluted 5-fold with water containing 0.1% formic acid and submitted to LC-MS/MS analysis. All determinations were done in triplicate. […]
as §2

[3] = Plasma stability in fresh human plasma; conditions: 1 uM, 37° C.
Description: as §3, §2

[4] = Metabolic stability in pooled human liver microsomes; conditions: human liver microsomes 0.5 mg/mL, 1 uM, 37° C., NADPH
Description: as §1, §2

[5] = Stability in Simulated Gastric Fluid (SGF); conditions: 37° C., 0.01 mg/mL
Description: (§4) Stability in Simulated Gastric Fluid (SGF) and Simulated Intestinal Fluid (SIF). Procedure from Baudy et. al. (J. Med. Chem. 2009, 52, 771-778) used. The physiological stability of prodrugs was determined by examining the stability of the compound in SGF, and SIF at 37° C. The compounds were prepared in a 9:1 mixture of the appropriate test component (SGF, SIF) and acetonitrile to a final concentration of 0.01 mg/mL. The samples were thoroughly mixed and maintained at 37° C. Each sample was injected consecutively onto an Agilent 1100 system (Luna C18, 3 μm, 50 mm×3 mm; 1 mL/min; mobile phase of 0.1% trifluoroacetic acid in water/0.1% trifluoroacetic acid in acetonitrile) after a 3 h period. The percent remaining of prodrug was calculated by comparing the area of prodrug compound versus riluzole generated. The identities of the parent compounds and conversion products were confirmed by LC/MS.

[6] = Stability in Simulated Intestinal Fluid (SIF); conditions: 37° C., 0.01 mg/mL
Description: as §4

SMILES	Metabolic Stability mouse (30 minutes): percent of prodrug metabolized to riluzole [1] [%]	Plasma Stability mouse (1 hour): percent of prodrug metabolized to riluzole [2] [%]	Plasma Stability Human (1 hour): percent of prodrug metabolized to riluzole [3] [%]	Metabolic Stability human (30 minutes): percent of prodrug metabolized to riluzole [4] [%]	SGF (3 hours): percent of prodrug metabolized to riluzole [5] [%]	SIF (3 hours): percent of prodrug metabolized to riluzole [6] [%]
NCC(=O)Nc1nc2ccc(OC(F)(F)F)cc2s1 [Cpd 1, 2-Amino-N-(6-trifluoromethoxy-benzothiazol-2-yl)-acetamide]	4	11	3	7	–	–
C[C@@H](N)C(=O)Nc1nc2ccc(OC(F)(F)F)cc2s1 [Cpd 2, (R)-2-Amino-N-(6-trifluoromethoxy-benzothiazol-2-yl)-propionamide]	10	36	15	4	0	50
N[C@H](Cc1ccccc1)C(=O)Nc1nc2ccc(OC(F)(F)F)cc2s1 [Cpd 4, (R)-2-Amino-3-phenyl-N-(6-trifluoromethoxy-benzothiazol-2-yl)-propionamide]	12	47	6	18	3	0
N[C@H](COCc1ccccc1)C(=O)Nc1nc2ccc(OC(F)(F)F)cc2s1 [Cpd 5, (R)-2-Amino-3-benzyloxy-N-(6-trifluoromethoxy-benzothiazol-2-yl)-propionamide]	24	25	3	0	–	–
C[C@H](N)C(=O)Nc1nc2ccc(OC(F)(F)F)cc2s1 [Cpd 7, (S)-2-Amino-N-(6-trifluoromethoxy-benzothiazol-2-yl)-propionamide]	1	28	10	0	0	50
N[C@@H](Cc1ccccc1)C(=O)Nc1nc2ccc(OC(F)(F)F)cc2s1 [Cpd 9, (S)-2-Amino-3-phenyl-N-(6-trifluoromethoxy-benzothiazol-2-yl)-propionamide]	2	0	7	0	–	–
CCCCCCOC(=O)Nc1nc2ccc(OC(F)(F)F)cc2s1 [Cpd 17, (6-Trifluoromethoxy-benzothiazol-2-yl)-carbamic acid hexyl ester]	–	–	–	–	0	–
O=C(CCC(=O)Nc1nc2ccc(OC(F)(F)F)cc2s1)NCCN1CCOCC1 [Cpd 24, N-(2-Morpholin-4-yl-ethyl)-N′-(6-trifluoromethoxy-benzothiazol-2-yl)-succinamide]	–	–	–	–	0	60
NCC1(CC(=O)Nc2nc3ccc(OC(F)(F)F)cc3s2)CCCCC1 [Cpd 29, 2-(1-Aminomethyl-cyclohexyl)-N-(6-trifluoromethoxy-benzothiazol-2-yl)-acetamide]	–	–	–	–	0	50
